Measurements: the supplement of paper PMC10307832

Key:
Test in all cases: relative viability (nuclei count vs DMSO), 5 days (fraction); higher = more cells survive
Etoposide + Dasatinib = compound: COc1cc([C@@H]2c3cc4c(cc3[C@@H](O[C@@H]3O[C@@H]5CO[C@@H](C)O[C@H]5[C@H](O)[C@H]3O)[C@H]3COC(=O)[C@H]23)OCO4)cc(OC)c1O [Etoposide] + Cc1nc(Nc2ncc(C(=O)Nc3c(C)cccc3Cl)s2)cc(N2CCN(CCO)CC2)n1 [Dasatinib] (partner 0.075 µM)
Method in brief: (§1)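 One day after seeding in 1536-well plates, lung cancer cell lines were dosed by pin tool. Dosing was either single-drug or a fixed anchor-drug dose plus five library-drug doses (not always all listed) in √10 steps. After 5 days, nuclei were stained in one fix-and-stain step and counted on 4× images, and relative viability is the nuclei count of treated wells over that of vehicle wells, given as the median of duplicate plates.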

Bleomycin + Palbociclib = compound: CC1=C(N=C(N=C1N)[C@H](CC(=O)N)NC[C@@H](C(=O)N)N)C(=O)N[C@@H]([C@H](C2=CN=CN2)OC3C(C(C(C(O3)CO)O)O)OC4C(C(C(C(O4)CO)O)OC(=O)N)O)C(=O)N[C@H](C)[C@H]([C@H](C)C(=O)N[C@@H]([C@@H](C)O)C(=O)NCCC5=NC(=CS5)C6=NC(=CS6)C(=O)NCCC[S+](C)C)O [Bleomycin] + CC(=O)c1c(C)c2cnc(Nc3ccc(N4CCNCC4)cn3)nc2n(C2CCCC2)c1=O [Palbociclib] (partner 0.5 µM); settings: main component drawn
Method in brief: as §1

Etoposide + Pemetrexed = compound: COc1cc([C@@H]2c3cc4c(cc3[C@@H](O[C@@H]3O[C@@H]5CO[C@@H](C)O[C@H]5[C@H](O)[C@H]3O)[C@H]3COC(=O)[C@H]23)OCO4)cc(OC)c1O [Etoposide] + Nc1nc2[nH]cc(CCc3ccc(C(=O)N[C@@H](CCC(=O)O)C(=O)O)cc3)c2c(=O)[nH]1 [Pemetrexed] (partner 0.2 µM)
Method in brief: as §1

Etoposide + Foretinib = compound: COc1cc([C@@H]2c3cc4c(cc3[C@@H](O[C@@H]3O[C@@H]5CO[C@@H](C)O[C@H]5[C@H](O)[C@H]3O)[C@H]3COC(=O)[C@H]23)OCO4)cc(OC)c1O [Etoposide] + COc1cc2c(Oc3ccc(NC(=O)C4(C(=O)Nc5ccc(F)cc5)CC4)cc3F)ccnc2cc1OCCCN1CCOCC1 [Foretinib] (partner 0.25 µM)
Method in brief: as §1

**Q.** With UMC-11 as the cell line, how does the relative viability (Etoposide + Dasatinib; first compound 0.01 µM) read?
**A.** The relative viability was 0.455.

**Q.** And the relative viability (Etoposide + Dasatinib; first compound 0.03162 µM)?
**A.** Its relative viability is 0.38.

**Q.** What about the relative viability (Etoposide + Dasatinib; first compound 0.1 µM) of the same cell line?
**A.** The relative viability was 0.316.

**Q.** What about the relative viability (Etoposide + Dasatinib; first compound 0.3162 µM) of the same cell line?
**A.** The relative viability was 0.38.

**Q.** What about the relative viability (Etoposide + Dasatinib; first compound 1 µM) of the same cell line?
**A.** Its relative viability is 0.259.

**Q.** What about the relative viability (Bleomycin + Palbociclib; first compound 0.01 µM) of the same cell line?
**A.** The relative viability was 0.311.

**Q.** And the relative viability (Bleomycin + Palbociclib; first compound 0.03162 µM)?
**A.** The relative viability was 0.334.

**Q.** What about the relative viability (Bleomycin + Palbociclib; first compound 0.1 µM) of the same cell line?
**A.** Its relative viability is 0.355.

**Q.** And the relative viability (Bleomycin + Palbociclib; first compound 0.3162 µM)?
**A.** Its relative viability is 0.313.

**Q.** What about the relative viability (Bleomycin + Palbociclib; first compound 1 µM) of the same cell line?
**A.** Its relative viability is 0.263.

**Q.** What about the relative viability (Etoposide + Pemetrexed; first compound 0.01 µM) of the same cell line?
**A.** The relative viability was 0.809.

**Q.** What about the relative viability (Etoposide + Pemetrexed; first compound 0.03162 µM) of the same cell line?
**A.** The relative viability was 0.789.

**Q.** And the relative viability (Etoposide + Pemetrexed; first compound 0.1 µM)?
**A.** Its relative viability is 0.768.

**Q.** What about the relative viability (Etoposide + Pemetrexed; first compound 0.3162 µM) of the same cell line?
**A.** The relative viability was 0.53.

**Q.** And the relative viability (Etoposide + Pemetrexed; first compound 1 µM)?
**A.** Its relative viability is 0.313.

**Q.** And the relative viability (Etoposide + Foretinib; first compound 0.01 µM)?
**A.** The relative viability was 1.1.

**Q.** And the relative viability (Etoposide + Foretinib; first compound 0.03162 µM)?
**A.** Its relative viability is 1.17.

**Q.** And the relative viability (Etoposide + Foretinib; first compound 0.1 µM)?
**A.** The relative viability was 0.928.

**Q.** What about the relative viability (Etoposide + Foretinib; first compound 0.3162 µM) of the same cell line?
**A.** The relative viability was 0.566.

**Q.** And the relative viability (Etoposide + Foretinib; first compound 1 µM)?
**A.** The relative viability was 0.322.
